According to PMC11089511 (Journal of Medicinal Chemistry, 2024):
Blank lines part the entries; values can stand above or below the molecule they belong to.

Experiments:
[1] = cited from earlier work
[2] = cited from earlier work; remark: listed apart in the source
[3] = cited from earlier work; remark: listed apart in the source
[4] = biological target: wild-type TTR in human plasma (Homo sapiens, UniProt P02766); assay: Ex vivo competitive binding assay using a fluorogenic probe in human plasma; settings: for binding to TTR in human plasma (probe fluorescence intensity), in words: 6 h of incubation, Figure 3 / Figures S2–S4

Compound: O=C(O)c1ccc2nc(-c3cc(Cl)cc(Cl)c3)oc2c1 [Compound 1, Tafamidis]
aqueous solubility pH 6.8 [1]: >100 μM
hepatic microsome stability in rats [2]: 38.7 mL/min/kg
PAMPA permeability [3]: >50 ×10^–6 cm/s

fluorescence intensity of the probe relative to the control (DMSO) ([4]; compound 20 μM, human plasma with 5 μM TTR, Figure 2): approximately 30%
Compound: CCc1oc2ccccc2c1C(=O)c1cc(I)c(O)c(I)c1 [Compound 3, benziodarone]

binding to TTR in human plasma (probe fluorescence intensity), in words [4]: remarkably reduced compared to that of 7
Compound: CCc1oc2c(Cl)c(Cl)ccc2c1C(=O)c1cc(I)c(O)c(I)c1 [Compound 19, (6,7-Dichloro-2-ethylbenzofuran-3-yl)(4-hydroxy-3,5-diiodophenyl)methanone]

binding to TTR in human plasma (probe fluorescence intensity), in words [4]: weaker binding compared to 3
Compound: CCc1sc2ccccc2c1C(=O)c1cc(I)c(O)c(I)c1 [Compound 14, (2-Ethylbenzo[b]thien-3-yl)(4-hydroxy-3,5-diiodophenyl)methanone]

binding to TTR in human plasma (probe fluorescence intensity), in words [4]: remarkably reduced compared to that of 7
Compound: CCc1oc2ccc(Cl)c(Cl)c2c1C(=O)c1cc(I)c(O)c(I)c1 [Compound 18, (4,5-Dichloro-2-ethylbenzofuran-3-yl)(4-hydroxy-3,5-diiodophenyl)methanone]
